Assay results from PMC5854708, “Grass Carp Prolactin Gene: Structural Characterization and Signal Transduction for PACAP-induced Prolactin Promoter Activity” (Scientific Reports, 2018).
Like-named read-outs stand apart in the source and are kept apart here.

Experiments:
[1] = system: grass carp PRL promoter deletion/mutation/truncation constructs in αT3-1 cells; assay: Deletion, mutagenesis and truncation analysis of PRL promoter activity, dual-luciferase, αT3-1 cells; assay type: cell-based, grass carp (promoter); rat (αT3-1 cells, as printed); conditions: PACAP 10 nM, 24 hrs, n = 4
Experimental: To test the functionality of the grass carp PRL promoter, a series of deletion constructs were prepared by subcloning decreasing lengths of 5′ promoter sequence of PRL gene into the luciferase-expressing reporter pGL3.Basic. […] In this study, the upstream promoter of the carp PRL gene, including pPRL(−1156), pPRL(−914), pPRL(−670), pPRL(−448) and pPRL(−306), acted as strong promoters in αT3-1 cells. […] Subsequently, mutagenesis and truncation analysis were performed to investigate the role of transcription sites in PRL promoter activity.
Figure 3 Deletion, mutagenesis and truncation analysis of PRL promoter activity in αT3-1 cells. (A) Deletion analysis of the oPACAP38-induced PRL promoter activity. […] TEXT PRINTED IN THE PICTURE: (A) oPACAP38: pPRL(-1156).LUC: X 4.80 ± 0.15 *; pPRL(-914).LUC: X 4.51 ± 0.26 *; pPRL(-670).LUC: X 3.85 ± 0.17 *; pPRL(-448).LUC: X 3.79 ± 22 *; pPRL(-306).LUC: X 3.83 ± 0.12 *; pPRL(-166).LUC: X 3.26 ± 0.20 *; pPRL(-124).LUC: X 3.57 ± 0.19 *; pPRL(-57).LUC: X 2.09 ± 0.12 * DOUBTS OF THE COPYIST ABOUT THIS PICTURE: oPACAP38, pPRL(-448).LUC: the error reads '± 22' with no decimal point visible; '0.' may be missing or hidden / oPACAP38, pPRL(-306).LUC: 3.83 or 3.63 (small rotated print crossed by the dotted frame line) / The fold values (X ...) are printed over the oPACAP38 bars, one per promoter construct. […]

[2] = system: ERK in GH3 cells; conditions: cited from earlier work
From the text: (§1) In primary pituitary cells, PRL production induced by PACAP via functional coupling of cAMP/PKA−, Ca^2+/CaM−, and MAPK-dependent cascades. At the transcription level, cAMP/PKA and Ca^2+/CaM/CaM-II pathways are consistently involved in the PACAP regulation on PRL promoter activity. In mammalian cell models, e.g., in human SH-SY5Y neuroblastoma cells, functional coupling of MAPK (e.g., Erk1/2 and P38^MAPK) with cAMP-dependent mechanism has been reported. […] However, in our studies with αT3-1 cells, the inhibitors f ...

[3] = system: ERK in αT3–1 cells; conditions: cited from earlier work
From the text: as §1

[4] = system: CREB; conditions: mammalian cell models; via cAMP/PKA, cAMP/ERK and/or PLC/PKC; cited from earlier work
From the text: CREB is a member of the leucine zipper transcription factors and well-known to be involved in the activation of cAMP-inducible genes. […] Expression of a dominant-negative form of CREB (MCREB) inhibited basal and Forskolin-induced PRL promoter activity and PRL mRNA expression in rat lactotrophs ...

[5] = system: PRL secretion / PRL gene expression; conditions: mammals, cited from earlier work
From the text: (§2) PACAP and vasoactive intestinal peptide (VIP) are members of the glucagon/secretin peptide family and have been reported to play roles in PRL regulation. […] In contrast to VIP, the biological actions of PACAP on ...

[6] = system: PRL promoter in GH3 cells; conditions: cAMP-dependent; cited from earlier work
From the text: as §2

[7] = system: PAC1 receptors; conditions: cited from earlier work
From the text: as §2

[8] = system: PRL gene expression in GH4C1 cells; conditions: cited from earlier work
From the text: as §2

pituitary adenylate cyclase-activating peptide [PACAP]
PACAP-stimulated promoter activity upon mutagenesis and truncation of AP-1 site ([1]; AP-1 site −136 to −130, pPRL(−166).Luc): significantly suppressed | PACAP-stimulated promoter activity upon mutagenesis and truncation of C/EBPalpha site ([1]; C/EBPalpha site −226 to −217, pPRL(−306).Luc): significantly suppressed | ERK activation [2]: triggered ERK activation | ERK activation [3]: stimulates ERK activation | CREB phosphorylation [4]: trigger CREB phosphorylation | effect on PRL secretion ([5]; ref 9, 13): stimulatory | effect on PRL secretion ([5]; ref 14): inhibitory | effect on PRL secretion ([5]; ref 15, 16): no effect | effect on PRL promoter activity [6]: up-regulate PRL promoter activity | affinity/specificity at PAC1 receptors [7]: specific for PACAP | effect on PRL gene expression [8]: stimulatory effects
